# In patent US20240270762A1, “PENICILLIN-BINDING PROTEIN INHIBITORS” (priority 2021, published 2024):
# Where two headings read alike, the source gives them in different places.
# Tests used:
# N. gonorrhoeae WHO K = test: Liquid broth MIC in Fastidious broth; conditions: Neisseria gonorrhoeae
# N. gonorrhoeae WHO M = test: Liquid broth MIC in Fastidious broth; conditions: Neisseria gonorrhoeae
# Method: Liquid broth-based assays were used for antibacterial testing of PBP inhibitors in Neisseria gonorrhoeae. Briefly, cryo-preserved bacterial cultures of clinical strains were streaked for isolation on Chocolate Agar (72 g/L (2×) GC Agar Base (BD #228950) and 2% (2×) Hemoglobin was autoclaved at 121° C. for 20 minutes to sterilize. Once cooled to ˜50° C. the 2×GC Agar Base and 2× Hemoglobin solutions are combined and 1% IsoVitaleX Enrichment (BD #211876) was added to the solution). Strains were incubated at 36° C. and 5% CO2 to allow growth of colonies, 24 hours before inoculum preparation. 2-fold serial dilutions of test compounds were conducted in a 96 well plate with a final volume of 75 μL per well at 2-fold the final desired concentration in Fastidious broth (Remel #R07664). For preparation of assay inoculum, a direct suspension was prepared by aseptically swabbing 10-15 colonies from agar plates into culture tubes containing 2 mL of fresh sterile saline. After the dilution plates were set up, direct suspensions were then diluted in a cuvette containing sterile saline and the optical density was measured at 600 nm. Inocula were diluted such that 75 μL of this culture in Fastidious broth results in a starting bacterial concentration of 5×10^5 CFU/mL when added to the dilution plates. The plates were incubated for ˜24 hours at 36° C. and 5% CO2.
# N. gonorrhoeae WHO X = test: Liquid broth MIC in Fastidious broth; conditions: Neisseria gonorrhoeae
# N. gonorrhoeae WHO Z = test: Liquid broth MIC in Fastidious broth; conditions: Neisseria gonorrhoeae
# P. aeruginosa ATCC 35151 = test: microbe, parasite or virus in culture; assay type: cell-based; conditions: Pseudomonas aeruginosa, ATCC35151, read-out: Minimum inhibitory concentration, P. aeruginosa ATCC 35151
# P. aeruginosa CDC-0090 = test: microbe, parasite or virus in culture; assay type: cell-based; conditions: Pseudomonas aeruginosa, CDC0090, read-out: Minimum inhibitory concentration, P. aeruginosa CDC-0090
# [1] = system: B. humptydooensis ATCC BAA-2767; test: microbe, parasite or virus in culture; assay type: cell-based; conditions: Burkholderia humptydooensis, ATCCBAA2767, read-out: Minimum inhibitory concentration (MIC), B. humptydooensis ATCC BAA-2767
# [2] = system: P. aeruginosa (ΔmexAB-oprM); test: Broth microdilution MIC in iron-depleted CAMHB (IDM); assay type: cell-based; conditions: Pseudomonas aeruginosa; iron-depleted CAMHB (IDM); […]; read-out: Minimum inhibitory concentration, P. aeruginosa ΔmexAB-oprM
# A. baumannii ATCC 19606 = test: microbe, parasite or virus in culture; assay type: cell-based; conditions: Acinetobacter baumannii, ATCC19606, read-out: MIC, A. baumannii ATCC 19606
# N. gonorrhoeae WHO L = test: Liquid broth MIC in Fastidious broth; conditions: Neisseria gonorrhoeae
# A. baumannii CDC-0083 = test: microbe, parasite or virus in culture; assay type: cell-based; conditions: Acinetobacter baumannii, CDC0083, read-out: MIC, A. baumannii CDC-0083
# [3] = biological target: T1, PBP3 from Escherichia coli (K-12) (Escherichia coli, UniProt P0AD68); test: Bocillin-FL fluorescence polarization competition binding, E. coli PBP3
# T1 construct: made in house
# T1 sequence (P0AD68 1-577): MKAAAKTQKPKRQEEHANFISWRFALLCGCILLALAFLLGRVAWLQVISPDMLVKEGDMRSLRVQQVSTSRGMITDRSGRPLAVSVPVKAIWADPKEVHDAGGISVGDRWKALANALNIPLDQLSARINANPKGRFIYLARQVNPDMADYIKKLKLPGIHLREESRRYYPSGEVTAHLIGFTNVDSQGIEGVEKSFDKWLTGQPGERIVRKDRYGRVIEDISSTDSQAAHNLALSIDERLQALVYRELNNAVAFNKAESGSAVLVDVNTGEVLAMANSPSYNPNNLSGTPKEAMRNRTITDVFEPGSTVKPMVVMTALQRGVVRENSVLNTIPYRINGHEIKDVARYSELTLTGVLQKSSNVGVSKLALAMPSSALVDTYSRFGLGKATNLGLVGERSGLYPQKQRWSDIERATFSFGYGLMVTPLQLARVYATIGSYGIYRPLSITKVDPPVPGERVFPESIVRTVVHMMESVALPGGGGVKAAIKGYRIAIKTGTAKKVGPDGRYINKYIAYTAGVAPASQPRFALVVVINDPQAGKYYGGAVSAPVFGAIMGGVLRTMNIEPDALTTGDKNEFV
# Summary of the method: (§1)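 Purified PBP was preincubated with inhibitor (E. coli PBP3 1.5 μM, 30 min; P. aeruginosa PBP3 0.75 μM, A. baumannii PBP3 0.2 μM and PBP1a 1 μM, 15 min), then Bocillin-FL (0.1 μM; 0.05 μM for PBP1a) added and FP read up to 60 min. EC50 = 50% loss of bound probe.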
# [4] = biological target: T2, PBP3 from Pseudomonas aeruginosa (PAO1) (Pseudomonas aeruginosa, UniProt G3XD46); test: Bocillin-FL fluorescence polarization competition binding, P. aeruginosa PBP3; conditions: Binding affinity to P. aeruginosa PBP3; fluorescence polarization competition binding assay using Bocillin-FL; read-out: P. aeruginosa PBP3 Potency
# T2 construct: made in house
# T2 sequence (G3XD46 whole entry): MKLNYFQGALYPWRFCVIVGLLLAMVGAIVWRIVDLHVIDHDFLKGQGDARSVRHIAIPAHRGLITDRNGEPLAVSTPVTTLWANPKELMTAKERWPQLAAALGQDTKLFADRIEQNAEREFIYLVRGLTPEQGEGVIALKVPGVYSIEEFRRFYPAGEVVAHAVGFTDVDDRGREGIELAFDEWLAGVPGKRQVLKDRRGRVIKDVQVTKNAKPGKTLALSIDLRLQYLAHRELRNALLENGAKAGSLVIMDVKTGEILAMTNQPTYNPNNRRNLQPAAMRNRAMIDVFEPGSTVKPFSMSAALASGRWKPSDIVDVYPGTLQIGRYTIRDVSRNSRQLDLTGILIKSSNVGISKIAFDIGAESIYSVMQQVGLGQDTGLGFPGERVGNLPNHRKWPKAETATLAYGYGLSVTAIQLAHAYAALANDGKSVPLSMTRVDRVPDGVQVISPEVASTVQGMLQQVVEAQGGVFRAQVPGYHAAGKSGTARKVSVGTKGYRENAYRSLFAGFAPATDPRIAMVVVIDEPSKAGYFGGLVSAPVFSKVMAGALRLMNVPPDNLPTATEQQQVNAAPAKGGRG
# Summary of the method: as §1
# N. gonorrhoeae CDC-0197 = test: Liquid broth MIC in Fastidious broth; conditions: Neisseria gonorrhoeae
# N. gonorrhoeae FA1090 = test: Liquid broth MIC in Fastidious broth; conditions: Neisseria gonorrhoeae
# [5] = read-out: Minimum Inhibitory Concentration, WHO K
# [6] = read-out: Minimum Inhibitory Concentration, WHO M
# [7] = read-out: Minimum Inhibitory Concentration, WHO X
# [8] = read-out: Minimum Inhibitory Concentration, WHO Z
# [9] = read-out: Minimum Inhibitory Concentration, WHO L
# [10] = CDC0197, read-out: Minimum Inhibitory Concentration, CDC-0197
# [11] = FA1090, read-out: Minimum Inhibitory Concentration, FA 1090
SMILES,MIC (P. aeruginosa ATCC 35151) [µg/mL],MIC (P. aeruginosa CDC-0090) [µg/mL],MIC [1] [µg/mL],MIC [2] [µg/mL],MIC (A. baumannii ATCC 19606) [µg/mL],MIC (A. baumannii CDC-0083) [µg/mL],EC50 [3] [µM],IC50 [4] [µM],MIC (N. gonorrhoeae WHO K; [5]) [µg/mL],MIC (N. gonorrhoeae WHO M; [6]) [µg/mL],MIC (N. gonorrhoeae WHO X; [7]) [µg/mL],MIC (N. gonorrhoeae WHO Z; [8]) [µg/mL],MIC (N. gonorrhoeae WHO L; [9]) [µg/mL],MIC (N. gonorrhoeae CDC-0197; [10]) [µg/mL],MIC (N. gonorrhoeae FA1090; [11]) [µg/mL],also measured
"O=C(NCCN1CCN(C(=O)NC(C(=O)N[C@H]2Cc3ccc(F)c(C(=O)O)c3OB2O)c2cc(F)c(O)c(O)c2Cl)C1=O)c1ccncc1 (stereo partly drawn) [Example 245, (3R)-3-(2-(2-chloro-5-fluoro-3,4-dihydroxyphenyl)-2-(3-(2-(isonicotinamido)ethyl)-2-oxoimidazolidine-1-carboxamido)acetamido)-7-fluoro-2-hydroxy-3,4-dihydro-2H-benzo[e][1,2]oxaborinine-8-carboxylic acid]",< 1,< 1,< 1,< 1,< 1,< 1,10 to 50,< 10,–,–,–,–,–,–,–,"MIC (N. gonorrhoeae WHO K; read-out: Minimum Inhibitory Concentration (MIC), N. gonorrhoeae WHO K): > 64 µg/mL; MIC (N. gonorrhoeae WHO M; read-out: Minimum Inhibitory Concentration (MIC), N. gonorrhoeae WHO M): 16 to 32 µg/mL; MIC (N. gonorrhoeae WHO X; read-out: Minimum Inhibitory Concentration (MIC), N. gonorrhoeae WHO X): > 64 µg/mL; MIC (N. gonorrhoeae WHO Z; read-out: Minimum Inhibitory Concentration (MIC), N. gonorrhoeae WHO Z): > 64 µg/mL; MIC (N. gonorrhoeae WHO L; read-out: Minimum Inhibitory Concentration (MIC), N. gonorrhoeae WHO L): > 64 µg/mL; MIC (N. gonorrhoeae CDC-0197; CDC0197, read-out: Minimum Inhibitory Concentration (MIC), N. gonorrhoeae CDC-0197): > 64 µg/mL; MIC (N. gonorrhoeae FA1090; FA1090, read-out: Minimum Inhibitory Concentration (MIC), N. gonorrhoeae FA 1090): 4 to 8 µg/mL"
"O=C(NCCN1CCN(C(=O)NC(C(=O)N[C@H]2Cc3ccc(F)c(C(=O)O)c3OB2O)c2cc(F)c(O)c(O)c2Cl)C1=O)c1cccnc1 (stereo partly drawn) [Example 246, (3R)-3-(2-(2-chloro-5-fluoro-3,4-dihydroxyphenyl)-2-(3-(2-(nicotinamido)ethyl)-2-oxoimidazolidine-1-carboxamido)acetamido)-7-fluoro-2-hydroxy-3,4-dihydro-2H-benzo[e][1,2]oxaborinine-8-carboxylic acid]",< 1,2 to 4,2 to 4,< 1,< 1,< 1,10 to 50,< 10,> 64,16 to 32,> 64,16 to 32,> 64,> 64,4 to 8,–
"O=C(NCCN1CCN(C(=O)NC(C(=O)N[C@H]2Cc3ccc(F)c(C(=O)O)c3OB2O)c2cc(F)c(O)c(O)c2Cl)C1=O)c1nccs1 (stereo partly drawn) [Example 247, (3R)-3-(2-(2-chloro-5-fluoro-3,4-dihydroxyphenyl)-2-(2-oxo-3-(2-(thiazole-2-carboxamido)ethyl)imidazolidine-1-carboxamido)acetamido)-7-fluoro-2-hydroxy-3,4-dihydro-2H-benzo[e][1,2]oxaborinine-8-carboxylic acid]",< 1,2 to 4,< 1,< 1,< 1,< 1,10 to 50,< 10,> 64,16 to 32,> 64,16 to 32,> 64,> 64,4 to 8,–
"O=C(O)c1c(F)ccc2c1OB(O)[C@@H](NC(=O)C(NC(=O)N1CCN(CCNC(=O)[C@@H]3CCCN3)C1=O)c1cc(F)c(O)c(O)c1Cl)C2 (stereo partly drawn) [Example 248, (3R)-3-(2-(2-chloro-5-fluoro-3,4-dihydroxyphenyl)-2-(2-oxo-3-(2-((S)-pyrrolidine-2-carboxamido)ethyl)imidazolidine-1-carboxamido)acetamido)-7-fluoro-2-hydroxy-3,4-dihydro-2H-benzo[e][1,2]oxaborinine-8-carboxylic acid]",< 1,8 to 16,< 1,< 1,< 1,< 1,10 to 50,10 to 50,16 to 32,4 to 8,> 64,16 to 32,> 64,16 to 32,4 to 8,–
"O=C(NCCN1CCN(C(=O)NC(C(=O)N[C@H]2Cc3ccc(F)c(C(=O)O)c3OB2O)c2cc(F)c(O)c(O)c2Cl)C1=O)Nc1cccc(O)c1 (stereo partly drawn) [Example 249, (3R)-3-(2-(2-chloro-5-fluoro-3,4-dihydroxyphenyl)-2-(3-(2-(3-(3-hydroxyphenyl)ureido)ethyl)-2-oxoimidazolidine-1-carboxamido)acetamido)-7-fluoro-2-hydroxy-3,4-dihydro-2H-benzo[e][1,2]oxaborinine-8-carboxylic acid]",< 1,< 1,< 1,< 1,< 1,< 1,< 10,< 10,> 64,16 to 32,> 64,16 to 32,> 64,> 64,1 to 2,–
"O=C(NCCN1CCN(C(=O)NC(C(=O)N[C@H]2Cc3ccc(F)c(C(=O)O)c3OB2O)c2cc(F)c(O)c(O)c2Cl)C1=O)Nc1ccncc1 (stereo partly drawn) [Example 250, (3R)-3-(2-(2-chloro-5-fluoro-3,4-dihydroxyphenyl)-2-(2-oxo-3-(2-(3-(pyridin-4-yl)ureido)ethyl)imidazolidine-1-carboxamido)acetamido)-7-fluoro-2-hydroxy-3,4-dihydro-2H-benzo[e][1,2]oxaborinine-8-carboxylic acid]",< 1,2 to 4,< 1,< 1,< 1,< 1,< 10,< 10,> 64,16 to 32,> 64,> 64,> 64,> 64,4 to 8,–
"O=C(NCCN1CCN(C(=O)NC(C(=O)N[C@H]2Cc3ccc(F)c(C(=O)O)c3OB2O)c2cc(F)c(O)c(O)c2Cl)C1=O)Nc1cccnc1 (stereo partly drawn) [Example 251, (3R)-3-(2-(2-chloro-5-fluoro-3,4-dihydroxyphenyl)-2-(2-oxo-3-(2-(3-(pyridin-3-yl)ureido)ethyl)imidazolidine-1-carboxamido)acetamido)-7-fluoro-2-hydroxy-3,4-dihydro-2H-benzo[e][1,2]oxaborinine-8-carboxylic acid]",< 1,2 to 4,< 1,< 1,< 1,2 to 4,< 10,< 10,> 64,16 to 32,> 64,16 to 32,> 64,> 64,4 to 8,–
